In patent US11213484B2, “Dipivefrin orally disintegrating tablet formulations” (priority 2019, dated 2022):

Tests used:
[1] = Oral absorption (general statements); format: in vivo; conditions: orally administered
[2] = cited from earlier work
[3] = cited from earlier work; remark: listed apart in the source
[4] = well known in the art; cited from earlier work

| Compound | absorption after oral administration [1] | dipivefrin converted into epinephrine ([2]; 0.5% solution instilled in human eyes, within 30 minutes) [%] | ocular penetration relative to epinephrine (times greater) ([2]; human eyes) [times] | amount entering the rabbit eye relative to epinephrine [3] | absorption when taken orally [4] |
| --- | --- | --- | --- | --- | --- |
| CNCC(O)c1ccc(OC(=O)C(C)(C)C)c(OC(=O)C(C)(C)C)c1 (centres unmarked) [Dipivefrin, 4-(1-hydroxy-2-(methylamino)ethyl)-1,2-phenylene bis(2,2-dimethylpropanoate)] | well absorbed | 80 | 17 | eight to ten times more |  |
| CNC[C@H](O)c1ccc(O)c(O)c1 [epinephrine] |  |  |  |  | not absorbed |
